{
  "source": "paper PMC12638379",
  "about": "“An innovative approach to development of new pyrazolylquinolin-2-one hybrids as dual EGFR and BRAF^V600E inhibitors” (Molecular Diversity, 2025)",
  "test_system": "NCI 60 cancer cell lines",
  "test": "NCI anticancer screening over a panel of 60 cancer cells, single concentration 10 µM",
  "format": "cell-based, human",
  "conditions": "Homo sapiens, read-out: Growth inhibition (GI %)",
  "in_short": "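Primary single-dose screen at 10 µM over the NCI panel of 60 human tumour cell lines (leukemia, CNS, lung, colon, kidney, ovary, breast, prostate). The standard NCI Developmental Therapeutics Program protocol was used.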",
  "note": "Where two headings read alike, the source gives them in different places.",
  "data": [
    {"smiles": "CC(=O)c1cnn(-c2cc(=O)[nH]c3ccc(Br)cc23)c1C", "note": "[Compound 2e, 4-(4-Acetyl-5-methyl-1H-pyrazol-1-yl)-6-bromoquinolin-2(1H)-one]", "values": [
      {"measurement": "inhibition at 10 µM", "setting": "786-0, Renal cancer 786-0, 10 μM", "value": "< 5", "unit": "%"},
      {"measurement": "inhibition at 10 µM", "setting": "A498, Renal cancer A498, 10 μM", "value": "< 5", "unit": "%"},
      {"measurement": "inhibition at 10 µM", "setting": "A549, Non-small cell lung cancer A549/ATCC, 10 μM", "value": "< 5", "unit": "%"},
      {"measurement": "inhibition at 10 µM", "setting": "ACHN, Renal cancer ACHN, 10 μM", "value": "< 5", "unit": "%"},
      {"measurement": "inhibition at 10 µM", "setting": "BT-549, Breast cancer BT-549, 10 μM", "value": "< 5", "unit": "%"},
      {"measurement": "inhibition at 10 µM", "setting": "CAKI-1, Renal cancer CAKI-1, 10 μM", "value": 16.5, "unit": "%"},
      {"measurement": "inhibition at 10 µM", "setting": "CCRF-CEM, Leukemia CCRF-CEM, 10 μM", "value": 8.16, "unit": "%"},
      {"measurement": "inhibition at 10 µM", "setting": "COLO 205, Colon cancer COLO 205, 10 μM", "value": "< 5", "unit": "%"},
      {"measurement": "inhibition at 10 µM", "setting": "DU-145, Prostate cancer DU-145, 10 μM", "value": "< 5", "unit": "%"},
      {"measurement": "inhibition at 10 µM", "setting": "EKVX, Non-small cell lung cancer EKVX, 10 μM", "value": 6.46, "unit": "%"},
      {"measurement": "inhibition at 10 µM", "setting": "HCC 2998, Colon cancer HCC-2998, 10 μM", "value": "< 5", "unit": "%"},
      {"measurement": "inhibition at 10 µM", "setting": "HCT-15, Colon cancer HCT-15, 10 μM", "value": "< 5", "unit": "%"},
      {"measurement": "inhibition at 10 µM", "setting": "HCT-116, Colon cancer HCT-116, 10 μM", "value": "< 5", "unit": "%"},
      {"measurement": "inhibition at 10 µM", "setting": "HL-60, Leukemia HL-60(TB), 10 μM", "value": 12.8, "unit": "%"},
      {"measurement": "inhibition at 10 µM", "setting": "HOP-62, Non-small cell lung cancer HOP-62, 10 μM", "value": 13.6, "unit": "%"},
      {"measurement": "inhibition at 10 µM", "setting": "HOP-92, Non-small cell lung cancer HOP-92, 10 μM", "value": 20.4, "unit": "%"},
      {"measurement": "inhibition at 10 µM", "setting": "HT-29, Colon cancer HT29, 10 μM", "value": 7.95, "unit": "%"},
      {"measurement": "inhibition at 10 µM", "setting": "Hs-578T, Breast cancer HS 578T, 10 μM", "value": 6.91, "unit": "%"},
      {"measurement": "inhibition at 10 µM", "setting": "IGROV-1, Ovarian cancer IGROV1, 10 μM", "value": "< 5", "unit": "%"},
      {"measurement": "inhibition at 10 µM", "setting": "K562, Leukemia K-562, 10 μM", "value": "< 5", "unit": "%"},
      {"measurement": "inhibition at 10 µM", "setting": "KM12, Colon cancer KM12, 10 μM", "value": "< 5", "unit": "%"},
      {"measurement": "inhibition at 10 µM", "setting": "LOX IMVI, Melanoma LOX IMVI, 10 μM", "value": 9.22, "unit": "%"},
      {"measurement": "inhibition at 10 µM", "setting": "Leukemia SR, 10 μM", "value": "< 5", "unit": "%"},
      {"measurement": "inhibition at 10 µM", "setting": "MCF7, Breast cancer MCF7, 10 μM", "value": "< 5", "unit": "%"},
      {"measurement": "inhibition at 10 µM", "setting": "MDA-MB-231, Breast Cancer MDA-MB 231/ATCC, 10 μM", "value": "< 5", "unit": "%"},
      {"measurement": "inhibition at 10 µM", "setting": "MDA-MB-435, Melanoma MDA-MB-435, 10 μM", "value": "< 5", "unit": "%"},
      {"measurement": "inhibition at 10 µM", "setting": "MDA-MB-468, Breast cancer MDA-MB-468, 10 μM", "value": "< 5", "unit": "%"},
      {"measurement": "inhibition at 10 µM", "setting": "MOLT-4, Leukemia MOLT-4, 10 μM", "value": "< 5", "unit": "%"},
      {"measurement": "inhibition at 10 µM", "setting": "Malme-3M, Melanoma MALME-3M, 10 μM", "value": 14, "unit": "%"},
      {"measurement": "inhibition at 10 µM", "setting": "Melanoma M14, 10 μM", "value": "< 5", "unit": "%"},
      {"measurement": "inhibition at 10 µM", "setting": "NCI-H23, Non-small cell lung cancer NCI-H23, 10 μM", "value": "< 5", "unit": "%"},
      {"measurement": "inhibition at 10 µM", "setting": "NCI-H226, Non-small cell lung cancer NCI-H226, 10 μM", "value": 10.7, "unit": "%"},
      {"measurement": "inhibition at 10 µM", "setting": "NCI-H322M, Non-small cell lung cancer NCI-H322M, 10 μM", "value": "< 5", "unit": "%"},
      {"measurement": "inhibition at 10 µM", "setting": "NCI-H460, Non-small cell lung cancer NCI-H460, 10 μM", "value": "< 5", "unit": "%"},
      {"measurement": "inhibition at 10 µM", "setting": "NCI-H522, Non-small cell lung cancer NCI-H522, 10 μM", "value": 7.32, "unit": "%"},
      {"measurement": "inhibition at 10 µM", "setting": "NCI/ADR-RES, Ovarian cancer NCI/ADR-RES, 10 μM", "value": "< 5", "unit": "%"},
      {"measurement": "inhibition at 10 µM", "setting": "OVCAR-3, Ovarian cancer OVCAR-3, 10 μM", "value": "< 5", "unit": "%"},
      {"measurement": "inhibition at 10 µM", "setting": "OVCAR-4, Ovarian cancer OVCAR-4, 10 μM", "value": "< 5", "unit": "%"},
      {"measurement": "inhibition at 10 µM", "setting": "OVCAR-5, Ovarian cancer OVCAR-5, 10 μM", "value": "< 5", "unit": "%"},
      {"measurement": "inhibition at 10 µM", "setting": "OVCAR-8, Ovarian cancer OVCAR-8, 10 μM", "value": "< 5", "unit": "%"},
      {"measurement": "inhibition at 10 µM", "setting": "Prostate cancer PC-3, 10 μM", "value": 13.3, "unit": "%"},
      {"measurement": "inhibition at 10 µM", "setting": "RPMI-8226, Leukemia RPMI-8226, 10 μM", "value": 9.34, "unit": "%"},
      {"measurement": "inhibition at 10 µM", "setting": "RXF 393, Renal cancer RXF 393, 10 μM", "value": "< 5", "unit": "%"},
      {"measurement": "inhibition at 10 µM", "setting": "SF-268, CNS Cancer SF-268, 10 μM", "value": "< 5", "unit": "%"},
      {"measurement": "inhibition at 10 µM", "setting": "SF-295, CNS Cancer SF-295, 10 μM", "value": 6.55, "unit": "%"},
      {"measurement": "inhibition at 10 µM", "setting": "SF-539, CNS Cancer SF-539, 10 μM", "value": 7.46, "unit": "%"},
      {"measurement": "inhibition at 10 µM", "setting": "SK-MEL-2, Melanoma SK-MEL-2, 10 μM", "value": "< 5", "unit": "%"},
      {"measurement": "inhibition at 10 µM", "setting": "SK-MEL-5, Melanoma SK-MEL-5, 10 μM", "value": "< 5", "unit": "%"},
      {"measurement": "inhibition at 10 µM", "setting": "SK-MEL-28, Melanoma SK-MEL-28, 10 μM", "value": "< 5", "unit": "%"},
      {"measurement": "inhibition at 10 µM", "setting": "SK-OV-3, Ovarian cancer SK-OV-3, 10 μM", "value": "< 5", "unit": "%"},
      {"measurement": "inhibition at 10 µM", "setting": "SN12C, Renal cancer SN12C, 10 μM", "value": 6.46, "unit": "%"},
      {"measurement": "inhibition at 10 µM", "setting": "SNB-19, CNS Cancer SNB-19, 10 μM", "value": 5.52, "unit": "%"},
      {"measurement": "inhibition at 10 µM", "setting": "SNB-75, CNS Cancer SNB-75, 10 μM", "value": 15.6, "unit": "%"},
      {"measurement": "inhibition at 10 µM", "setting": "SW-620, Colon cancer SW-620, 10 μM", "value": "< 5", "unit": "%"},
      {"measurement": "inhibition at 10 µM", "setting": "T47D, Breast cancer T-47D, 10 μM", "value": 12.2, "unit": "%"},
      {"measurement": "inhibition at 10 µM", "setting": "TK-10, Renal cancer TK-10, 10 μM", "value": "< 5", "unit": "%"},
      {"measurement": "inhibition at 10 µM", "setting": "U-251, CNS Cancer U251, 10 μM", "value": "< 5", "unit": "%"},
      {"measurement": "inhibition at 10 µM", "setting": "UACC-62, Melanoma UACC-62, 10 μM", "value": "< 5", "unit": "%"},
      {"measurement": "inhibition at 10 µM", "setting": "UACC-257, Melanoma UACC-257, 10 μM", "value": "< 5", "unit": "%"},
      {"measurement": "inhibition at 10 µM", "setting": "UO-31, Renal cancer UO-31, 10 μM", "value": 37.4, "unit": "%"}
    ]}
  ]
}
